# Measurements published in patent US12558354B2, “Tumor necrosis factor alpha (TNF-alpha) small molecule inhibitor” (AJOU UNIVERSITY INDUSTRY-ACADEMIC COOPERATION FOUNDATION, priority 2019, dated 2026).
# Assays:
# [1] = molecular target: T1, recombinant human TNF-α (rhTNF-α) (Homo sapiens, UniProt P01375); assay: TNF-α-mediated hIL-8 secretion in HDFs (ELISA); type: cell-based; conditions: HDFs, 1, 10 and 50 μM, rhTNF-α 1 ng/ml, 24 hours
# T1 construct: purchased Miltenyi Biotec
# Experimental: HDFs were seeded at a density of 10^4/well in a 96-well plate (BD Biosciences) and grown overnight. The cells were treated for 24 hours with a 1-hour-pre-incubated mixture of rhTNF-α and test compounds. IL-8 secretion was assessed by a human IL-8 uncoated ELISA kit (eBioscience, Inc., San Diego, CA, USA), and IL-6 secretion level was assessed by a human IL-6 ELISA MAX™ Deluxe kit (BioLegend, San Diego, CA, USA). The microtiter plates were then analyzed at an appropriate wavelength using a microplate spectrophotometer system (Molecular Devices, Silicon Valley, California).
# [2] = tested on: human dermal fibroblasts (HDFs); assay: Cell viability (MTT) assay in human dermal fibroblasts; type: cell-based; conditions: HDFs, 24 hours
# Experimental: FIG. 8A is a graph showing the effects of TIM1 and a solvent thereof, DMSO, on the viability of human dermal fibroblasts, in which cells (10^4/well) were treated with DMSO at 3 different concentrations (0.5, 1, and 2%) and TIM1 at 8 different concentrations (1, 3.125, 6.25, 12.5, 25, 50, 100, and 200 μM) for 24 hours, and the cell viability was monitored by an MTT assay. FIG. 8B is a graph showing the effect of TIM1 on the viability of a mouse fibrosarcoma cell line [L929 (1.5×10^4/well)] under the same conditions as in FIG. 8A. All experiments were independently performed 4 times, and mean±SEM of the independent experiments was calculated using a two-tailed paired Student's t-test (*P<0.05).
# In order to measure cell viability, a colorimetric […] (MTT) assay (Sigma-Aldrich Co.) was performed. HDFs were seeded at a density of 10^4/well in 96-well plates (BD Biosciences, San Jose, CA, USA), grown overnight, and then treated with a test compound at various concentrations for 24 hours. The next day, the medium was replaced with a medium (100 μl/well) containing a 10% MTT solution, followed by incubated at 37° C. for 3 hours. This solution was replaced with DMSO (100 μl/well), and the plates were incubated at room temperature for 30 minutes. Thereafter, the plates were read at a wavelength of 540 nm using a microplate spectrophotometer system (Molecular Devices, Silicon Valley, California).
# T1 sequence (P01375 77-233 limits assumed): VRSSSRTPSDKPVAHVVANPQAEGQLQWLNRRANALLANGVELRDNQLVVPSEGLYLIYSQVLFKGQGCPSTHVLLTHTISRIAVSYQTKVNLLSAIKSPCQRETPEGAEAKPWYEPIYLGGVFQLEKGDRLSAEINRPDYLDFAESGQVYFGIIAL
SMILES,"inhibition of TNF-induced hIL-8, TIM1 derivatives compared with TIM1 [1]","cytotoxicity (cell viability, MTT assay) [2]"
"Cc1cc(-c2csc(NC(=O)c3nn(C)c(=O)c4ccccc34)n2)c(C)n1CCc1ccccc1 [TIM1-14, N-{4-[2,5-dimethyl-1-(2-phenylethyl)pyrrol-3-yl]-1,3-thiazol-2-yl}-3-methyl-4-oxophthalazine-1-carboxamide]",concentration-dependent inhibition of TNF-induced hIL-8 greater than that of TIM1,negligible cytotoxicity
"CCCn1c(C)cc(-c2csc(NC(=O)c3nn(CC)c(=O)c4ccccc34)n2)c1C [TIM1-7, N-[4-(2,5-dimethyl-1-propylpyrrol-3-yl)-1,3-thiazol-2-yl]-3-ethyl-4-oxophthalazine-1-carboxamide]",concentration-dependent inhibition of TNF-induced hIL-8 greater than that of TIM1,negligible cytotoxicity
"Cc1cc(-c2csc(N(C)C)n2)c(C)n1NC(=O)c1nn(C)c(=O)c2ccccc12 [TIM1d, N-{3-[2-(dimethylamino)-1,3-thiazol-4-yl]-2,5-dimethylpyrrol-1-yl}-3-methyl-4-oxophthalazine-1-carboxamide]",concentration-dependent inhibition of TNF-induced hIL-8 greater than that of TIM1,negligible cytotoxicity
"Cc1csc(N(C(=O)c2nn(C)c(=O)c3ccccc23)c2ccccc2)n1 [TIM1-10, 3-methyl-N-(4-methy1-1,3-thiazol-2-yl)-4-oxo-N-phenylphthalazine-1-carboxamide]",concentration-dependent inhibition of TNF-induced hIL-8 greater than that of TIM1,negligible cytotoxicity
"CCCCCCn1nc(C(=O)Nc2nc3ccccc3s2)c2ccccc2c1=O [TIM1-11, N-(1,3-benzothiazol-2-yl)-3-hexyl-4-oxophthalazine-1-carboxamide]",concentration-dependent inhibition of TNF-induced hIL-8 greater than that of TIM1,negligible cytotoxicity
